Test results: patent publication US20230111310A1, “CARBOXYLIC ACID DERIVATIVE-SUBSTITUTED IMINO ARYL COMPOUND, PREPARATION METHOD THEREFOR, HERBICIDAL COMPOSITION AND USE THEREOF” (Qingdao Kingagroot Chemical Compound Co., Ltd., priority 2020, published 2023)

Test system: Abutilon theophrasti
Experiment: Weeding effect in post-emergence stage
Type: in vivo
Conditions: Dose 15 g/ha; fresh weight control rate level
Excerpt: The activity level criteria for plant damage (i.e., growth control rate) are as follows:
Monocotyledonous and dicotyledonous weed seeds (Descurainia sophia, Capsella bursa-pastoris, Abutilon theophrasti, Galium aparine, Stellaria media, Lithospermum arvense, rorippa indica, Alopecurus aequalis, Alopecurus japonicus, Eleusine indica, Beckmannia syzigachne, Sclerochloa dura, Conyza Canadensis, Phleum paniculatum, Veronica didyma Tenore, Bromus japonicus, Aegilops tauschii, Phalaris arundinacea, Amaranthus retroflexus, Chenopodiaceae, Commelina communis, Sonchus arvensis, Convolvulus arvensis, Cirsium setosum, Bidens tripartita L., Solanum nigrum, Acalypha australis, Digitaria sanguinalis, Echinochloa crusgalli, Setaria viridis, Setaria glauca, Leptochloa chinensis, Monochoria vaginalis, Sagittaria trifolia, Scirpus juncoides, Cyperus rotundus, Cyperus iria, Cyperus difformis, Fimbristylis, Portulaca oleracea, Xanthium sibiricum, Pharbitis nil, etc.) and major crop seeds (wheat, corn, rice, soybean, cotton, oilseed rape, millet, sorghum, potato, sesame, ricinus, etc.) were placed in plastic pots filled with soil, then covered with 0.5-2 cm of soil, allowed to grow in a good greenhouse environment. After 2 weeks of sowing, the test plants were treated in the 2-3 leaf stage. The tested compounds of the present invention were respectively dissolved in acetone, then added with Tween 80 and 1.5 liter/ha of emulsifiable concentrate of methyl oleate as synergist, diluted with a certain amount of water to obtain a solution with a certain concentration, and sprayed with a spray tower onto the plants. After the application, the plants were cultured for 3 weeks in the greenhouse, and then the experimental results of the weeding were counted. […]

Row | SMILES | Weeding effect in post-emergence stage, Abutilon theophrasti (level)
1 | COC(=O)[C@@H](C)O/N=C/c1cc(-n2c(=O)c(I)c(C(F)(F)F)n(C)c2=O)c(F)cc1Cl [476(R)] | 5 (Level 5: growth control rate is above 85%)
2 | COC(=O)CCO/N=C/c1cc(-n2c(=O)cc(C(F)(F)F)n(C)c2=O)c(F)cc1Cl [Compound 479] | 5 (Level 5: growth control rate is above 85%)
3 | COC(=O)C(C)O/N=C/c1cc(-n2c(=O)c(OC)c(C(F)(F)F)n(C)c2=O)c(F)cc1Cl (racemic) [Compound 477] | 5 (Level 5: growth control rate is above 85%)
4 | CCC(C)(O/N=C/c1cc(-n2c(=O)cc(C(F)(F)F)n(C)c2=O)c(F)cc1Cl)C(=O)OC (racemic) [Compound 471] | 5 (Level 5: growth control rate is above 85%)
5 | COC(=O)C(C)O/N=C/c1cc(-n2c(=O)c(Br)c(C(F)(F)F)n(C)c2=O)c(F)cc1Cl (racemic) [Compound 475] | 5 (Level 5: growth control rate is above 85%)
6 | C[C@@H](O/N=C/c1cc(-n2c(=O)cc(C(F)(F)F)n(C)c2=O)c(F)cc1Cl)C(=O)NO [452(R)] | 5 (Level 5: growth control rate is above 85%)
7 | CC(ON=Cc1cc(-n2c(=O)cc(C(F)(F)F)n(C)c2=O)c(F)cc1Cl)C(=O)OCCOC(=O)C(C)ON=Cc1cc(-n2c(=O)cc(C(F)(F)F)n(C)c2=O)c(F)cc1Cl [451(R)] | 5 (Level 5: growth control rate is above 85%)
8 | COC(=O)CC(C)O/N=C/c1cc(-n2c(=O)cc(C(F)(F)F)n(C)c2=O)c(F)cc1Cl (racemic) [Compound 481] | 5 (Level 5: growth control rate is above 85%)
9 | CC[C@@](C)(O/N=C/c1cc(-n2c(=O)cc(C(F)(F)F)n(C)c2=O)c(F)cc1Cl)C(=O)OC [471(R)] | 5 (Level 5: growth control rate is above 85%)
10 | CC(O/N=C/c1cc(-n2c(=O)cc(C(F)(F)F)n(C)c2=O)c(F)cc1Cl)C(=O)NO (centres unmarked) [Compound 452] | 5 (Level 5: growth control rate is above 85%)
11 | COC(=O)C(C)O/N=C/c1cc(-n2c(=O)c(I)c(C(F)(F)F)n(C)c2=O)c(F)cc1Cl (racemic) [Compound 476] | 5 (Level 5: growth control rate is above 85%)
12 | COC(=O)[C@@H](C)O/N=C/c1cc(-n2c(=O)c(Br)c(C(F)(F)F)n(C)c2=O)c(F)cc1Cl [475(R)] | 5 (Level 5: growth control rate is above 85%)
13 | CCOC(=O)CCO/N=C/c1cc(-n2c(=O)cc(C(F)(F)F)n(C)c2=O)c(F)cc1Cl [Compound 480] | 5 (Level 5: growth control rate is above 85%)
14 | COC(=O)C[C@@H](C)O/N=C/c1cc(-n2c(=O)cc(C(F)(F)F)n(C)c2=O)c(F)cc1Cl [481(R)] | 5 (Level 5: growth control rate is above 85%)
15 | COC(=O)[C@@H](C)O/N=C/c1cc(-n2c(=O)c(OC)c(C(F)(F)F)n(C)c2=O)c(F)cc1Cl [477(R)] | 5 (Level 5: growth control rate is above 85%)
16 | CC(O/N=C/c1cc(-n2c(=O)cc(C(F)(F)F)n(C)c2=O)c(F)cc1Cl)C(=O)OCCOC(=O)C(C)O/N=C/c1cc(-n2c(=O)cc(C(F)(F)F)n(C)c2=O)c(F)cc1Cl (centres unmarked) [Compound 451] | 5 (Level 5: growth control rate is above 85%)

Same assay, conditions: Dose 60 g/ha; fresh weight control rate level

Row | SMILES | Weeding effect in post-emergence stage, Abutilon theophrasti (level)
17 | CC(O/N=C/c1cc(-n2c(=O)c(CCO)c(C(F)(F)F)n(C)c2=O)c(F)cc1Cl)C(=O)OCCO (racemic) [Compound 478] | 5 (Level 5: growth control rate is above 85%)
